Experimental findings from patent US9555050B2 (BIOGEN MA INC., priority 2012, dated 2017) are described below.

This assay deals with T1, Human ATX protein (Homo sapiens, UniProt Q13822).
T1 construct: made in house
Put plainly: ATX biochemical FRET assay with FS-3 substrate. The conditions noted are these: FS-3 substrate 2 μM, ATX 1.0 μg/mL, 30 min preincubation, 2 hours at room temperature. The procedure, abridged: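 In-house purified human ATX (1.0 μg/mL final) pre-incubated 30 min at room temperature with compound in Tris buffer pH 7.4 with salts and 1 mg/mL fatty acid-free BSA. FS-3 substrate (2 μM final) then hydrolysed 2 h at room temperature, protected from light; fluorescence read at 485/538 nm.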

As usually defined, the IC50 is the concentration that gives 50% inhibition. For the compound `O=C(O)CC1CN(Cc2ccc3c(C(F)(F)F)c(O[C@H]4CC[C@@H](C(F)(F)F)CC4)ccc3c2)C1` [Example 62, 2-(1-((5-(trifluoromethyl)-6-(4-cis-(trifluoromethyl)cyclohexyloxy)naphthalene-2-yl)methyl)azetidine-3-yl)acetic acid], the IC50 is ≤ 250 nM.
To `O=P(O)(O)CCCNCc1ccc2c(C(F)(F)F)c(O[C@H]3CC[C@@H](C(F)(F)F)CC3)ccc2c1` [Example 63, 3-(((5-(trifluoromethyl)-6-(cis-4-(trifluoromethyl)cyclohexyloxy)naphthalene-2-yl)methyl)amino)propylphosphonic acid] belongs ≤ 100 nM; to `O=C(O)CC1CCN(Cc2ccc3c(C(F)(F)F)c(O[C@H]4CC[C@@H](C(F)(F)F)CC4)ccc3c2)CC1` [Example 65, 1-((5-(trifluoromethyl)-6-((cis-4-(trifluoromethyl)cyclohexyl)oxy)-naphthalen-2-yl)methyl)piperidine-4-acetic acid], ≤ 250 nM.
The value for `O=P(O)(O)Cc1ccc(NCc2ccc3c(C(F)(F)F)c(O[C@H]4CC[C@@H](C(F)(F)F)CC4)ccc3c2)cc1` [Example 68, (4-((5-(trifluoromethyl)-6-(cis-4-(trifluoromethyl)cyclohexyloxy)naphthalene-2-yl)methyl)aminophenyl)methylphosphonic acid] was ≤ 100 nM; that for `O=C(O)c1ccc(CNCc2ccc3c(C(F)(F)F)c(O[C@H]4CC[C@@H](C(F)(F)F)CC4)ccc3c2)nc1` [Example 69, 6-((((5-(trifluoromethyl)-6-((cis)-4-(trifluoromethyl)cyclohexyloxy)naphthalene-2-yl)methyl)amino)methyl)nicotinic acid] was ≤ 250 nM.
To `O=C(O)[C@H]1CC[C@@H](NCc2ccc3c(C(F)(F)F)c(O[C@H]4CC[C@@H](C(F)(F)F)CC4)ccc3c2)CC1` [Example 70, cis-4-(((5-(trifluoromethyl)-6-((cis)-4-(trifluoromethyl)cyclohexyloxy)naphthalene-2-yl)methyl)amino)cyclohexane-1-carboxylic acid] belongs ≤ 500 nM.
In the case of `O=C(O)C[C@@H]1CCN(Cc2ccc3c(C(F)(F)F)c(O[C@H]4CC[C@@H](C(F)(F)F)CC4)ccc3c2)C1` [Example 71, (S)-1-((5-(trifluoromethyl)-6-((cis)-4-(trifluoromethyl)cyclohexyloxy)naphthalene-2-yl)methyl)pyrrolidine-3-acetic acid], the IC50 is ≤ 500 nM.
To `O=C(O)CCC1CCC(NCc2ccc3c(C(F)(F)F)c(OC4CCC(C(F)(F)F)CC4)ccc3c2)CC1` (stereo not drawn) [Example 73, 3-((4-((5-(trifluoromethyl)-6-(cis-4-(trifluoromethyl)cyclohexyloxy)naphthalene-2-yl)methyl)amino)cyclohexyl)propionic acid] belongs ≤ 500 nM; to `O=C(O)c1ccc(CNCc2ccc3c(C(F)(F)F)c(O[C@H]4CC[C@@H](C(F)(F)F)CC4)ccc3c2)cn1` [Example 75, 5-((((5-(trifluoromethyl)-6-((cis-4-(trifluoromethyl)cyclohexyl)oxy)-naphthalen-2-yl)methyl)amino)methyl)pyridine-2-carboxylic acid], ≤ 250 nM.
In the case of `CN(Cc1ccc2c(C(F)(F)F)c(O[C@H]3CC[C@@H](C(F)(F)F)CC3)ccc2c1)[C@H]1CC[C@@H](C(=O)O)CC1` [Example 79, N-methyl-cis-4-(((5-(trifluoromethyl)-6-(cis-4-(trifluoromethyl)cyclohexyloxy)naphthalene-2-yl)methyl)amino)cyclohexane-1-carboxylic acid], the IC50 was ≤ 500 nM.
The value for `O=C(O)C[C@H]1CCCN(Cc2ccc3c(C(F)(F)F)c(O[C@H]4CC[C@@H](C(F)(F)F)CC4)ccc3c2)C1` [Example 80, 2-((R)-1-((2-(cis-4-(trifluoromethyl)cyclohexyloxy)-1-(trifluoromethyl)naphthalen-6-yl)methyl)piperidin-3-yl)acetic acid] was ≤ 250 nM; that for `O=C(O)C[C@H]1CN(Cc2ccc3c(C(F)(F)F)c(O[C@H]4CC[C@@H](C(F)(F)F)CC4)ccc3c2)CCO1` [Example 82, 2-((S)-4-((2-(cis-4-(trifluoromethyl)cyclohexyloxy)-1-(trifluoromethyl)naphthalen-6-yl)methyl)morpholin-2-yl)acetic acid] was ≤ 250 nM.
Turning to `O=C(O)CCC1CCN(Cc2ccc3c(C(F)(F)F)c(O[C@H]4CC[C@@H](C(F)(F)F)CC4)ccc3c2)CC1` [Example 83, 3-(1-((2-(cis-4-(trifluoromethyl)cyclohexyloxy)-1-(trifluoromethyl)naphthalen-6-yl)methyl)piperidine-4-yl)propionic acid], the half-maximal inhibitory concentration (IC50) was ≤ 500 nM.
The value for `CC[C@H]1CC[C@@H](Oc2ccc3cc(CN4CCC[C@H](CC(=O)O)C4)ccc3c2C(F)(F)F)CC1` [Example 84, 2-((R)-1-((2-(cis-4-(ethyl)cyclohexyloxy)-1-(trifluoromethyl)naphthalen-6-yl)methyl)piperidin-3-yl)acetic acid] was ≤ 100 nM; that for `CC1(C)C(NCc2ccc3c(C(F)(F)F)c(OC4CCC(C(F)(F)F)CC4)ccc3n2)CC1C(=O)O` (stereo not drawn) [Example 87, 2,2-dimethyl-3-((((5-(trifluoromethyl)-6-(cis-4-(trifluoromethyl)cyclo-hexyl)oxy)quinolin-2-yl)methyl)amino)cyclobutanecarboxylic acid] was ≤ 500 nM; that for `CCC(c1ccc2c(C(F)(F)F)c(O[C@H]3CC[C@@H](C(F)(F)F)CC3)ccc2c1)N1CCC[C@@H](CC(=O)O)C1` (stereo partly drawn) [Example 89, 2-((S)-1-(1-(2-(cis-4-(trifluoromethyl)cyclohexyloxy)-1-(trifluoromethyl)naphthalen-6-yl)propyl)piperidin-3-yl)acetic acid] was ≤ 100 nM.
The value for `C[C@@H](c1ccc2c(C(F)F)c(O[C@H]3CC[C@@H](C)CC3)ccc2c1)N1CCC[C@H](CC(=O)O)C1` [Example 91, 2-((3R)-1-((S)-1-(6-((cis-4-Methylcyclohexyl)oxy)-5-(difluoromethyl)naphthalen-2-yl)ethyl)piperidin-3-yl)acetic acid] was ≤ 100 nM; that for `C[C@H](c1ccc2c(C(F)F)c(O[C@H]3CC[C@@H](C)CC3)ccc2c1)N1CCC[C@H](CC(=O)O)C1` [Example 92, 2-((3R)-1-((R)-1-(6-((cis-4-Methylcyclohexyl)oxy)-5-(difluoromethyl)naphthalen-2-yl)ethyl)piperidin-3-yl)acetic acid] was ≤ 100 nM.
On to `CC[C@@H](c1ccc2c(C(F)F)c(O[C@H]3CC[C@@H](C)CC3)ccc2c1)N1CCC[C@H](CC(=O)O)C1` [Example 93, 2-((3R)-1-((S)-1-(6-((cis-4-Methylcyclohexyl)oxy)-5-(difluoromethyl)naphthalen-2-yl)propyl)piperidin-3-yl)acetic acid], for which the IC50 is ≤ 100 nM.
Turning to `CC[C@H](c1ccc2c(C(F)F)c(O[C@H]3CC[C@@H](C)CC3)ccc2c1)N1CCC[C@H](CC(=O)O)C1` [Example 94, 2-((3R)-1-((R)-1-(6-((cis-4-Methylcyclohexyl)oxy)-5-(difluoromethyl)naphthalen-2-yl)propyl)piperidin-3-yl)acetic acid], the IC50 is ≤ 100 nM.
The value for `C[C@@H](c1ccc2c(C(F)(F)F)c(O[C@H]3CC[C@@H](C)CC3)ccc2c1)N1CCC[C@H](CC(=O)O)C1` [Example 95, 2-((3R)-1-((S)-1-(6-((cis-4-Methylcyclohexyl)oxy)-5-(trifluoromethyl)naphthalen-2-yl)ethyl)piperidin-3-yl)acetic acid] was ≤ 100 nM; that for `C[C@H](c1ccc2c(C(F)(F)F)c(O[C@H]3CC[C@@H](C)CC3)ccc2c1)N1CCC[C@H](CC(=O)O)C1` [Example 96, 2-((3R)-1-((R)-1-(6-((cis-4-Methylcyclohexyl)oxy)-5-(trifluoromethyl)naphthalen-2-yl)ethyl)piperidin-3-yl)acetic acid] was ≤ 100 nM.
As for `C[C@H]1CC[C@@H](Oc2ccc3cc(CN4CC(CC(=O)O)C4)ccc3c2C(F)F)CC1` [Example 97, 1-((5-(Difluoromethyl)-6-((cis-4-methylcyclohexyl)oxy)naphthalen-2-yl)methyl)azetidine-3-acetic acid], the IC50 was ≤ 100 nM.
To `C[C@@H](c1ccc2c(C(F)F)c(O[C@H]3CC[C@@H](C)CC3)ccc2c1)N1CCC[C@@H](CC(=O)O)C1` [Example 100, 2-((S)-1-((S)-1-(2-(cis-4-methylcyclohexyloxy)-1-(difluoromethyl)naphthalen-6-yl)ethyl)piperidin-3-yl)acetic acid] belongs ≤ 100 nM.
